Experimental data taken from patent publication EP0403301B1, “Aerosols of pyrido[1,2-a]pyrimidine compounds” (TOKYO TANABE COMPANY LIMITED, priority 1989, dated 1990).
≈ marks a conversion by molar mass, not a printed value.

Assays:
Format in all cases: physicochemical
solubility in water = experiment: solubility in water
Experimental: (§1) Inhalations for use as antiallergic agents include aqueous solution type aerosol inhalations, solution type aerosol inhalations and suspension type aerosol inhalations. The solubilities of pyrido[1,2-a]pyrimidine compounds in water are very low. For example, the solubility of 9-[(4-acetyl-3-hydroxy-2-n-propylphenoxy)methyl]-3-(1H-tetrazol-5-yl)-4H-pyrido[1,2-a]pyrimidin-4-one (hereinafter referred to as AS-35) in water is as low as 0.4 µg/ml. Accordingly, it would be impractical to prepare an aqueous solution type aerosol inhalation of AS-35, because this would require massive containers and devices. Moreover, in order to prepare a solution type aerosol inhalation of a pyrido[1,2-a]pyrimidine compound, it must be dissolved in a propellant or a mixture of a propellant and a commonly used solubilizing agent. […] Moreover, AS-35 is also insoluble in mixtures of such propellants and commonly used solubilizing agents. Thus, it is impossible to prepare a solution type aerosol inhalation of AS-35.

[1] = solubility in propellants and in propellant/solubilizing agent mixtures; conditions: Freon 11, 12, 13, 21, 22, 113, 114, 115, 123, 124, 132b, 133a, 134a, 141b, 142b, 152a, 225ca, 225cb, C318
Experimental: as §1

[2] = dispersibility and cohesiveness of fine particles in propellant with dispersant (naked eye); conditions: AS-148 in place of AS-35
Experimental: First of all, a series of experiments were carried out to evaluate the effectiveness of conventional dispersants. More specifically, various ester forms of non-ionic surfactants which are non-irritating to the site of application were tested by using an aerosol composition consisting of finely powdered AS-35 and a propellant comprising a 4:6 mixture of Freon 11 and Freon 12. Thus, the solubility of the dispersants in the propellant, the dispersibility of fine particles, the cohesiveness of fine particles, and variation in the amount delivered were examined.
Among the aforesaid test items, the solubility of a dispersant in the propellant was evaluated by placing 90 mg of the dispersant in a transparent container made of polyethylene terephthalate (hereinafter referred to as PET), attaching a valve thereto, injecting the propellant (i.e., a 4:6 mixture of Freon 11 and Freon 12) thereinto until the contents amounted to 12.0 g, shaking the container vigorously, and then observing the contents with the naked eye. […]

Row | solubility (solubility in water) [µg/mL] | solubility in commonly used propellants [1] | results of Table 1 (dispersibility, cohesiveness with conventional dispersants) [2] | SMILES
1 | 0.4 (≈ 0.951 µM) | entirely insoluble |  | CCCc1c(OCc2cccn3c(=O)c(-c4nnn[nH]4)cnc23)ccc(C(C)=O)c1O [AS-35, 9-[(4-acetyl-3-hydroxy-2-n-propylphenoxy)methyl]-3-(1H-tetrazol-5-yl)-4H-pyrido[1,2-a]pyrimidin-4-one]
2 |  |  | exactly the same results as AS-35 | CCCc1c(OCc2cccn3c(=O)c(CC(=O)O)cnc23)ccc(C(C)=O)c1O [AS-148, [9-(4-acetyl-3-hydroxy-2-n-propylphenoxymethyl)-4-oxo-pyrido[1,2-a]pyrimidin-3-yl]-acetic acid]
